Laboratory results: PMC12051620, “Molecular basis underlying the specificity of an antagonist AA92593 for mammalian melanopsins” (The Journal of Biological Chemistry, 2025)

Tested on: lanceolatum melanopsin WT
Assay: GsX GloSensor assay with Gsα/q11
Format: cell-based, Branchiostoma lanceolatum
Settings: 16.7 μM AA92593, COS-1 cells
Description: Non-mammalian-type melanopsins were successfully converted into AA92593-susceptible types by introducing Phe-94^2.61/Ser-188^ECL2/Ser-269^6.52 or Phe-207^5.42 (Fig. 6). We attempted to extend the functional conversion targets to invertebrate melanopsin (see Fig. S2). […] We assessed the susceptibility of belcheri and lanceolatum melanopsins to AA92593 using the GsX GloSensor assay with Gsα/q11. In the absence of AA92593, the belcheri melanopsin produced smaller light-dependent cAMP responses than the other melanopsins assessed in this study (Fig. 7A), whereas the lanceolatum melanopsin produced robust cAMP responses upon light illumination (Fig. 7B). […] On the other hand, responses by the lanceolatum melanopsin were insensitive to the antagonist (Fig. 7B), similar to non-mammalian-type melanopsins (Fig. 6, A and D). […]
For GloSensor assay, opsins, GloSensor assay sensor (coded by pGlo-22F), and NanoBiT-tagged G proteins were transiently expressed in COS-1 cells (kindly provided from Dr David Farrens, Oregon Health and Science University) using PEI as described previously ([24], [52]). […] For GFP-fluorescence microscopy, a 35-mm cell culture dish (IWAKI) was transfected with 2 μg melanopsin-GFP plasmid and 8 μg PEI in 400 μl Opti-mem and 1.2 ml D-MEM. […]

For COc1ccc(S(=O)(=O)N2CCCCC2)cc1C [AA92593], the “sensitivity of light-induced responses to the antagonist” value was “insensitive”.
